The nature of series [1]: Critical micelle concentration by surface tension measurement. The series is classed as physicochemical. An excerpt: The critical micelle concentration may be determined by measuring the surface tension. The surface tension may be measured using a surface tensiometer CBVP-A3 (Kyowa Interface Science Co., Ltd.), for example.
The critical micelle concentration may be determined in accordance with “Environmental Science & Technology (2011)”, 45(19), 8120-8128 and the literature cited therein.

Series [2] is described as follows: Log POW (1-octanol/water partition coefficient) by HPLC calibration.
Protocol: Log POW is a 1-octanol/water partition coefficient which is represented by Log P (wherein P is the ratio between the concentration of the fluorosurfactant in octanol and that in water in a phase-separated octanol/water (1:1) liquid mixture containing the fluorosurfactant).
Log POW is determined as follows. Specifically, HPLC is performed on standard substances (heptanoic acid, octanoic acid, nonanoic acid, and decanoic acid) each having a known octanol/water partition coefficient using TOSOH ODS-120T (φ4.6 mm×250 mm) as a column and acetonitrile/0.6 mass % HClO4 aqueous solution (=1/1 (vol/vol %)) as an eluent at a flow rate of 1.0 ml/min, a sample amount of 300 μL, and a column temperature of 40° C.; with a detection light of UV 210 nm. For each standard substance, a calibration curve is drawn with respect to the elution time and the known octanol/water partition coefficient. Based on this calibration curve, Log POW is calculated from the elution time of the sample liquid in HPLC.

Structures are written as SMILES.

In series [1], `N.O=C(O)C(F)(OC(F)(F)C(F)(OC(F)(F)F)C(F)(F)F)C(F)(F)F` (centres unmarked) [CF3OCF(CF3)CF2OCF(CF3)COONH4, ammonium 2,3,3,3-tetrafluoro-2-[1,1,2,3,3,3-hexafluoro-2-(trifluoromethoxy)propoxy]-propanoate] gave a critical micelle concentration of 22 g/L. In series [2], this compound yielded a chromatographic logP of 3.4.

For `O=S(=O)(O)CCC(F)(F)C(F)(F)C(F)(F)C(F)(F)C(F)(F)C(F)(F)F` [C6F13(CH2)2SO3H], the critical micelle concentration in series [1] was 1 g/L.

The compound `N.O=C(O)C(F)(F)C(F)(F)C(F)(F)C(F)(F)C(F)(F)F` [CF3(CF2)4COONH4, ammonium perfluorohexanoate] came in with a critical micelle concentration in series [1] of 56 g/L. Further, in series [2], the chromatographic logP was 2.4.

As to `N.O=C(O)C(F)(F)C(F)(F)C(F)(F)C(F)(F)F` [CF3(CF2)3COONH4, ammonium perfluoropentanoate], the critical micelle concentration in series [1] is given as 82 g/L. The chromatographic logP in series [2] was found to be 2.

The compound `N.O=C(O)C(F)(OC(F)(F)C(F)(F)C(F)(F)F)C(F)(F)F` (centres unmarked) [C3F7OCF(CF3)COONH4] returned a critical micelle concentration in series [1] of 48 g/L.

The values above are taken from patent publication US20170096504A1, “METHOD FOR PRODUCING FLUOROPOLYMER AQUEOUS DISPERSION LIQUID” (DAIKIN INDUSTRIES, LTD., priority 2014, published 2017).
